Read-outs that look alike come from different tables or passages of the source.
Tested on: Triple negative breast cancer cell line CAL51
Assay: Cell Titer Glo proliferation assay, CAL51
Format: cell-based
Details: Homo sapiens, CAL-51, read-out: Act. Level
Summary of the method: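 CAL51 cells grown in DMEM or RPMI1640 with 10% FBS and 2 mM L-glutamine, cultured overnight, then exposed to serially diluted compound (0.2% DMSO final) for 72 h. Viability read by Cell Titer Glo luminescence.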

[1] = CAL51 cell proliferation (Table 1)
[2] = CAL51 cell proliferation, Cell Titer Glo

| SMILES | IC50 [1] [nM] | IC50 [2] [nM] |
| --- | --- | --- |
| COc1nc(Nc2ccc(C(=O)N(C)C)cc2C)nc2[nH]cc(-c3ccc(S(C)(=O)=O)cc3)c12 [Example 411, 4-(4-methoxy-5-(4-(methylsulfonyl)phenyl)-7H-pyrrolo[2,3-d]pyrimidin-2-ylamino)-N,N,3-trimethylbenzamide] | 1000 to 10000 |  |
| COc1cc(C(=O)NC2COC2)ccc1Nc1nc(OC)c2c(-c3ccc4c(C)noc4c3)c[nH]c2n1 [Example 380, 3-methoxy-4-(4-methoxy-5-(3-methylbenzo[d]isoxazol-6-yl)-7H-pyrrolo[2,3-d]pyrimidin-2-ylamino)-N-(oxetan-3-yl)benzamide] |  | 100 to 400 |
| COc1cc(C(=O)NC2COC2)ccc1Nc1nc(OC2CCOCC2)c2c(-c3ccc4nc(C)oc4c3)c[nH]c2n1 [Example 368, 3-methoxy-4-(5-(2-methylbenzo[d]oxazol-6-yl)-4-(tetrahydro-2H-pyran-4-yloxy)-7H-pyrrolo[2,3-d]pyrimidin-2-ylamino)-N-(oxetan-3-yl)benzamide] |  | < 100 |
| COc1cc(C(=O)NC2COC2)ccc1Nc1nc(OC)c2c(-c3ccnnc3)c[nH]c2n1 [Example 405, 3-methoxy-4-(4-methoxy-5-(pyridazin-4-yl)-7H-pyrrolo[2,3-d]pyrimidin-2-ylamino)-N-(oxetan-3-yl)benzamide] | 400 to 1000 |  |
| COc1nc(Nc2ccc(C(=O)N(C)C)cc2C)nc2[nH]cc(-c3ccc4[nH]c(C)nc4c3)c12 [Example 399, 4-(4-methoxy-5-(2-methyl-1H-benzo[d]imidazol-5-yl)-7H-pyrrolo[2,3-d]pyrimidin-2-ylamino)-N,N,3-trimethylbenzamide] | < 100 |  |
| CNC(=O)c1ccc(-c2c[nH]c3nc(Nc4ccc(C(=O)NC)cc4Cl)nc(OC)c23)cc1 [Example 428, 3-chloro-4-(4-methoxy-5-(4-(methylcarbamoyl)phenyl)-7H-pyrrolo[2,3-d]pyrimidin-2-ylamino)-N-methylbenzamide] | < 100 |  |
| CNC(=O)c1ccc(Nc2nc(OC3CCCC3)c3c(-c4ccc(C(=O)OC)cc4)c[nH]c3n2)c(OC)c1 [Example 318, methyl 4-(4-(cyclopentyloxy)-2-(2-methoxy-4-(methylcarbamoyl)phenylamino)-7H-pyrrolo[2,3-d]pyrimidin-5-yl)benzoate] |  | 1000 to 10000 |
| COc1cc(C(=O)NC2COC2)ccc1Nc1nc(OC)c2c(-c3ccc4[nH]c(C)nc4c3)c[nH]c2n1 [Example 404, 3-methoxy-4-(4-methoxy-5-(2-methyl-1H-benzo[d]imidazol-5-yl)-7H-pyrrolo[2,3-d]pyrimidin-2-ylamino)-N-(oxetan-3-yl)benzamide] | 100 to 400 |  |
| COc1cc(C(=O)NC2COC2)ccc1Nc1nc(OC2CCC2)c2c(-c3ccc(-c4ncc[nH]4)cc3)c[nH]c2n1 [Example 360, 4-(5-(4-(1H-imidazol-2-yl)phenyl)-4-cyclobutoxy-7H-pyrrolo[2,3-d]pyrimidin-2-ylamino)-3-methoxy-N-(oxetan-3-yl)benzamide] |  | < 100 |
| COc1nc(Nc2ccc(C(=O)NC3COC3)cc2C)nc2[nH]cc(-c3ccncc3)c12 [Example 396, 4-(4-methoxy-5-(pyridin-4-yl)-7H-pyrrolo[2,3-d]pyrimidin-2-ylamino)-3-methyl-N-(oxetan-3 yl)benzamide] |  | 100 to 400 |
| COc1nc(Nc2ccc(C(=O)N(C)C3COC3)cc2C)nc2[nH]cc(-c3ccncc3)c12 [Example 406, 4-(4-methoxy-5-(pyridin-4-yl)-7H-pyrrolo[2,3-d]pyrimidin-2-ylamino)-N,3-dimethyl-N-(oxetan-3-yl)benzamide] | 100 to 400 |  |
| CNC(=O)c1ccc(-c2c[nH]c3nc(Nc4cn(C)nc4C)nc(OC4CCC4)c23)cc1 [Example 340, 4-(4-cyclobutoxy-2-(1,3-dimethyl-1H-pyrazol-4-ylamino)-7H-pyrrolo[2,3-d]pyrimidin-5-yl)-N-methylbenzamide] |  | < 100 |
| Cc1nc2ccc(-c3c[nH]c4nc(Nc5ccc(C(=O)NC6COC6)cc5Cl)nc(OC5CCOCC5)c34)cc2o1 [Example 438, 3-chloro-4-(5-(2-methylbenzo[d]oxazol-6-yl)-4-(tetrahydro-2H-pyran-4-yloxy)-7H-pyrrolo[2,3-d]pyrimidin-2-ylamino)-N-(oxetan-3-yl)benzamide] | < 100 |  |
| CNC(=O)c1ccc(-c2c[nH]c3nc(Nc4ccc(C(=O)NC)cc4Cl)nc(O[C@@H]4CCOC4)c23)cc1 [Example 434, (R)-3-chloro-N-methyl-4-(5-(4-(methylcarbamoyl)phenyl)-4-(tetrahydrofuran-3-yloxy)-7H-pyrrolo[2,3-d]pyrimidin-2-ylamino)benzamide] | < 100 |  |
| COc1cc(C(=O)NC2COC2)ccc1Nc1nc(OC)c2c(-c3cn(C)nc3Cl)c[nH]c2n1 [Example 417, 4-(5-(3-chloro-1-methyl-1H-pyrazol-4-yl)-4-methoxy-7H-pyrrolo[2,3-d]pyrimidin-2-ylamino)-3-methoxy-N-(oxetan-3-yl)benzamide] | 1000 to 10000 |  |
| CNC(=O)c1ccc(-c2c[nH]c3nc(Nc4ccc(C(=O)NC)cc4Cl)nc(OC4CCCC4)c23)cc1 [Example 425, 3-chloro-4-(4-(cyclopentyloxy)-5-(4-(methylcarbamoyl)phenyl)-7H-pyrrolo[2,3-d]pyrimidin-2-ylamino)-N-methylbenzamide] | < 100 |  |
| CNC(=O)c1ccc(-c2c[nH]c3nc(Nc4ccc(C(=O)NC5CN(C)C5)cc4OC)nc(OC(C)C)c23)cc1 [Example 357, 4-(4-isopropoxy-5-(4-(methylcarbamoyl)phenyl)-7H-pyrrolo[2,3-d]pyrimidin-2-ylamino)-3-methoxy-N-(1-methylazetidin-3-yl)benzamide] |  | < 100 |
| CNC(=O)c1ccc(Nc2nc(OC3CCCC3)c3c(-c4ccc(OC)cc4OC)c[nH]c3n2)c(OC)c1 [Example 320, 4-(4-(cyclopentyloxy)-5-(2,4-dimethoxyphenyl)-7H-pyrrolo[2,3-d]pyrimidin-2-ylamino)-3-methoxy-N-methylbenzamide] |  | 1000 to 10000 |
| COc1nc(Nc2cn(C)nc2C)nc2[nH]cc(-c3ccncc3)c12 [Example 393, N-(1,3-dimethyl-1H-pyrazol-4-yl)-4-methoxy-5-(pyridin-4-yl)-7H-pyrrolo[2,3-d]pyrimidin-2-amine] |  | 100 to 400 |
| CNC(=O)c1ccc(Nc2nc(OC3CC3)c3c(-c4ccn(C)n4)c[nH]c3n2)c(OC)c1 [Example 218, 4-(4-cyclopropoxy-5-(1-methyl-1H-pyrazol-3-yl)-7H-pyrrolo[2,3-d]pyrimidin-2-ylamino)-3-methoxy-N-methylbenzamide] |  | 1000 to 10000 |
| COc1cc(C(=O)N(C)C)ccc1Nc1nc(OC)c2c(-c3ccncc3)c[nH]c2n1 [Example 392, 3-methoxy-4-(4-methoxy-5-(pyridin-4-yl)-7H-pyrrolo[2,3-d]pyrimidin-2-ylamino)-N,N-dimethylbenzamide] |  | < 100 |
| COc1cc(C(=O)N2C[C@H]2CO)ccc1Nc1nc(OC2CCCC2)c2c(-c3ccc4nc(C)oc4c3)c[nH]c2n1 [Example 350, (S)-(4-(4-(cyclopentyloxy)-5-(2-methylbenzo[d]oxazol-6-yl)-7H-pyrrolo[2,3-d]pyrimidin-2-ylamino)-3-methoxyphenyl)(2-(hydroxymethyl)aziridin-1-yl)methanone] |  | 100 to 400 |
| COc1cc(C2CCOCC2)ncc1Nc1nc(OC)c2c(-c3ccnc(F)c3)c[nH]c2n1 [Example 416, 5-(2-fluoropyridin-4-yl)-4-methoxy-N-(4-methoxy-6-(tetrahydro-2H-pyran-4-yl)pyridin-3-yl)-7H-pyrrolo[2,3-d]pyrimidin-2-amine] | 1000 to 10000 |  |
| COc1cc(C(=O)NC2COC2)ccc1Nc1nc(OC)c2c(-c3cc(C)nc(F)c3)c[nH]c2n1 [Example 424, 4-(5-(2-fluoro-6-methylpyridin-4-yl)-4-methoxy-7H-pyrrolo[2,3-d]pyrimidin-2-ylamino)-3-methoxy-N-(oxetan-3-yl)benzamide] | 100 to 400 |  |
| COc1nc(Nc2ccc(C(=O)N(C)C)cc2C)nc2[nH]cc(-c3ccc4c(C)noc4c3)c12 [Example 400, 4-(4-methoxy-5-(3-methylbenzo[d]isoxazol-6-yl)-7H-pyrrolo[2,3-d]pyrimidin-2-ylamino)-N,N,3-trimethylbenzamide] | < 100 |  |
| COc1nc(Nc2ccc(C(=O)N(C)C)cc2C)nc2[nH]cc(-c3ccc4nc(C)n(C)c4c3)c12 [Example 407, 4-(5-(1,2-dimethyl-1H-benzo[d]imidazol-6-yl)-4-methoxy-7H-pyrrolo[2,3-d]pyrimidin-2-ylamino)-N,N,3-trimethylbenzamide] | 100 to 400 |  |
| COc1cc(C(=O)NC2COC2)ccc1Nc1nc(O[C@H]2CCOC2)c2c(-c3ccc4nc(C)oc4c3)c[nH]c2n1 [Example 343, (S)-3-methoxy-4-(5-(2-methylbenzo[d]oxazol-6-yl)-4-(tetrahydrofuran-3-yloxy)-7H-pyrrolo[2,3-d]pyrimidin-2-ylamino)-N-(oxetan-3-yl)benzamide] |  | < 100 |
| CNC(=O)c1ccc(-c2c[nH]c3nc(Nc4ccc(C(=O)NC5CN(C)C5)cc4OC)nc(OC4CCC4)c23)cc1 [Example 348, 4-(4-cyclobutoxy-5-(4-(methylcarbamoyl)phenyl)-7H-pyrrolo[2,3-d]pyrimidin-2-ylamino)-3-methoxy-N-(1-methylazetidin-3-yl)benzamide] |  | 100 to 400 |
| CNC(=O)c1ccc(Nc2nc(OC)c3c(-c4ccc5nc(C)oc5c4)c[nH]c3n2)c(Cl)c1 [Example 427, 3-chloro-4-(4-methoxy-5-(2-methylbenzo[d]oxazol-6-yl)-7H-pyrrolo[2,3-d]pyrimidin-2-ylamino)-N-methylbenzamide] | < 100 |  |
| Cc1nc2ccc(-c3c[nH]c4nc(Nc5cnn(C(C)C)c5Cl)nc(OC5CCCC5)c34)cc2o1 [Example 351, N-(5-chloro-1-isopropyl-1H-pyrazol-4-yl)-4-(cyclopentyloxy)-5-(2-methylbenzo[d]oxazol-6-yl)-7H-pyrrolo[2,3-d]pyrimidin-2-amine] |  | 100 to 400 |

Reference: US9795607B2, “Substituted pyrrolopyrimidine compounds, compositions thereof, and methods of treatment therewith” (Signal Pharmaceutical, LLC, priority 2013, dated 2017)
